Laboratory results as given in patent publication EP0080271A1, “Indomethacin phenyl ester derivatives, their use, and compositions containing them” (priority 1981, dated 1983).
Like-named read-outs stand apart in the source and are kept apart here.

Tests used:
rats [1] = experiment: intestinal ulcers and survival after oral administration for 5 days; format: in vivo; settings: group of 12 rats, oral for 5 days, daily dose 28 µM; for ulceration (%): percentage of surviving animals with ulcers
Method: Each compound listed in Table 5 was administered orally to a group of 12 rats for 5 days, and the number of intestinal ulcers was determined. The degree of ulceration was calculated as a percentage of number of […] surviving animals with respect to the number of surviving animals.

rats [2] = experiment: ulceration activity: ulcer index 5 hours after oral administration; format: in vivo; settings: sacrificed 5 hours after administration
Method: (§1) Secondly, in order to assess ulceration activity, various compounds (listed in Table 2) were administered orally to a group of rats. The animals were sacrificed 5 hours after administration, and the ulcer index was determined. Compounds were also administered orally to a group of rats for 1 week, and the number of intestinal ulcers was determined. The same compounds were administered orally to a group of rats, the ulcer index being determined by observing the stomach 3 hours after administration.

[3] = test system: edema induced by carrageenin in rat; experiment: inhibition of edema induced by carrageenin in rat (hind paw volume); format: in vivo; settings: oral 1 hour before carrageenin injection; for inhibition (%): 3 hours after injection; for edema (%): hind paw volume 3 hours after injection
Method: Firstly, in order to assess anti-inflammatory activity, the inhibition of edema induced by carrageenin in rat was studied. Various compounds (listed in Table 1) were administered orally to a group of rats just 1 hour before a carrageenin injection, and the hind paw volume was measured 3 hours after injection.

[4] = LD50 by oral administration in mice; settings: mouse, in vivo, mice of the stock ddy
Method: LD50 of this compound, determined by means of oral administration in mice of the stock ddy, was 200 mg/kg.

rats [5] = experiment: number of intestinal ulcers after oral administration for 1 week; format: in vivo; settings: oral for 1 week, dose 15 µM
Method: as §1

rats [6] = experiment: ulcer index, stomach observed 3 hours after oral administration; format: in vivo; settings: stomach 3 hours after administration, dose 0.056 mM
Method: as §1

rats [7] = format: in vivo; settings: group of 10 rats, oral, stomach 24 hours after administration, dose 0.060 mM
Method: Each compound listed in Table 6 was administered orally to a group of 10 rats and the ulcer index was determined by observing the stomach 24 hours after administration.

serum esterase = settings: reported in Ceskoslovenska Farmacie 26 (1977) 6277; cited from earlier work
[8] = versus indomethacin plus salicyl salicylate

SMILES | number of intestinal ulcers (rats [1]) | ulceration (%) (rats [1]) | ulcer index (mm) (rats [2]; dose 0.030 mM) | inhibition (%) ([3]; dose 0.015 mM) | inhibition (%) ([3]; dose 0.030 mM) | edema (%) ([3]; dose 0.015 mM) | edema (%) ([3]; dose 0.030 mM) | further results
COc1ccc2c(c1)c(CC(=O)OCC(=O)O)c(C)n2C(=O)c1ccc(Cl)cc1 [Acemethacin, reference compound] | 11.0 | 100% | – | – | – | – | – | –
COc1ccc2c(c1)c(CC(=O)Oc1ccccc1C(=O)OCc1ccccc1)c(C)n2C(=O)c1ccc(Cl)cc1 [Example 1, 2-Benzyloxycarbonylphenyll-(p-chlorobenzoyl)-5-methoxy-2-methylindole-3-acetate] | – | – | 0.1 ± 0.1 mm | – | – | – | – | –
CCOC(=O)c1ccccc1OC(=O)Cc1c(C)n(C(=O)c2ccc(Cl)cc2)c2ccc(OC)cc12 [Example 2, 2-Ethoxycarbonylphenyl 1-(p-chlorobenzoyl)-5-methoxy-2-methylindole-3-acetate] | – | – | 0.2 ± 0.1 mm | 31.8% | 34.7% | 53.3 ± 8.7% | 52.9 ± 3.6% | LD50 [4]: 200 mg/kg
COc1ccc2c(c1)c(CC(=O)Oc1ccccc1C(=O)OC(C)(C)C)c(C)n2C(=O)c1ccc(Cl)cc1 [Example 3, 2-t-Butoxycarbonylphenyl 1-(p-chlorobenzoyl)-5-methoxy-2-methlindole-3-acetate] | – | – | 0.2 ± 0.1 mm | 35.8% | 34.7% | 52.0 ± 7.5% | 52.9 ± 3.6% | –
COc1ccc2c(c1)c(CC(=O)Oc1ccccc1C(=O)Oc1ccccc1C(=O)OCc1ccccc1)c(C)n2C(=O)c1ccc(Cl)cc1 [Example 4, 2-(2-Benzyloxycarbonylphenyl)oxycarbonylphenyl 1-(p-chlorobenzoyl)-5-methoxy-2-methylindole-3-acetate] | – | – | 0.4 ± 0.3 mm | – | – | – | – | –
COc1ccc2c(c1)c(CC(=O)Oc1ccccc1C(=O)Oc1ccccc1C(=O)O)c(C)n2C(=O)c1ccc(Cl)cc1 [Example 5, 2-(2-Hydroxycarbonylphenyl)oxycarbonylphenyll-(p-chlorobenzoyl)-5-methoxy-2-methylindole-3-acetate] | 2.4 ± 0.6 | 75% | 0.6 ± 0.3 mm | 42.7% | 48.7% | 46.4 ± 4.8% | 41.4 ± 5.3% | number of ulcers (rats [5]): 0.5 ± 2.0; inhibition (%) (rats [5]; [8]): 98.4%; Ulcer index (rats [6]): 3.7 ± 1.3; inhibition (%) (rats [6]; [8]): 86.0%
COc1ccc2c(c1)c(CC(=O)Oc1ccccc1C(=O)O)c(C)n2C(=O)c1ccc(Cl)cc1 [Indomethacin salicylic ester, 2-hydroxycarbonylphenyll-(p-chlorobenzoyl)-5-methoxy-2-methylindole-3-acetate] | 5.0 ± 0.4 | 100% | – | 49.4% | – | 41.0 ± 3.5% | – | ulcer index (mm) (rats [7]): 7.1 ± 1.6 mm; inhibition (%) (rats [7]; versus indomethacin): 73.2%; hydrolysis by serum esterase (serum esterase): hydrolysis by serum esterase
COc1ccc2c(c1)c(CC(=O)O)c(C)n2C(=O)c1ccc(Cl)cc1 [Indomethacin] | – | – | 5.9 ± 2.5 mm | 32.2% | 53.5% | 54.9 ± 6.5% | 37.7 ± 7.2% | number of survival animals (rats [1]): 0; ulcer index (mm) (rats [7]): 26.5 ± 6.2 mm; ulcer index (mm) (rats [2]; dose 21.5 mg/kg (0.060 mM)): 57.9 ± 6.6 mm
